Results reported in patent US20230382934A1, “HIGH ENTROPY OXIDES AND METHODS OF SYNTHESIS AND USE THEREOF” (Auburn University, priority 2022, published 2023).

What was measured:
[1] = T1-weighted relaxivity, 3 T clinical MRI scanner
Source text: All MRI data were collected at the Auburn University MRI Research Center on a Siemens Verio open-bore 3-T MRI clinical scanner. A 15-channel knee coil was used to simultaneously image 12-15 samples. The imaging procedure was identical to those used for similar studies (Zhang, Q. et al., 2011, Inorg. Chem. 50, 9365; Yu, M. et al., 2014, J. Am. Chem. Soc., 136:12836; Yu, M. et al., 2017, Inorg. Chem., 56:2812; Yu, M. et al., 2012, Inorg. Chem. 51:9153). An inversion recovery (IR) sequence was used that featured a non-selective adiabatic inversion pulse followed by a slice-selective gradient recalled echo (GRE) readout after a delay period corresponding to the inversion time (TI) (Bernstein, M. A. et al., 2004, Handbook of MRI Pulse Sequences; Haacke, E. M. et al., 1999, Magnetic Resonance Imaging: Physical Principles and Sequence Design). The GRE was a saturation readout, such that only one line of k-space was acquired per repetition time (TR), in order to maximize both signal strength and the accuracy of the T1 estimates. […]
Image analysis was performed using custom Matlab programs (Mathworks, Natick, MA). The initial TI=4.8 ms image was used as a baseline to determine circular region of interest (ROI) boundaries for each sample; from these, the mean pixel magnitudes for each ROI were calculated. […]

[2] = cited from earlier work; for log KML of the Mn(II) complex: other reported Mn(II)-binding ligands; for pMn: pH 7.4, 1.0 mM Mn(II) and ligand, previously characterized complexes
[3] = Stability of Fe(II) complexes by potentiometric pH titration (log KML); assay type: physicochemical; settings: 25° C.
Method: (§1) The aqueous speciation of H4qp4 was previously determined. Those for its Fe(II) and Fe(III) complexes were assessed using a METROHM 765 Dosimat with a jacketed, airtight glass titration vessel. A Fisher Scientific Accumet Research AR15 pH meter was used to monitor the pH of the sample solutions during the titrations. The electrode was calibrated before each titration using commercially available standard solutions buffered to pH 4.0, 7.0, and 10.0. All samples were purged with argon prior to analysis and subsequently analyzed under an argon atmosphere at 25° C. to prevent carbonate contamination. All solution samples were prepared in solutions of 100 mM KCl in deionized Millipore water. The titrations investigating metal-ligand speciation were run with solutions that contained a 1:1 molar mixture of the ligand and FeCl2·(4H2O). Carbonate-free solutions of 0.10 M KOH and 0.10 M HCl were prepared using argon-saturated deionized Millipore water. The titration data were analyzed and fit to speciation models using the Hyperquad2006 program.

[4] = Metal ion exchange with Fe(II) followed by UV/vis; assay type: physicochemical
Method: FIG. 18, comprising FIG. 18A and FIG. 18B, depicts representative spectrophotometric spectra. FIG. 18A depicts spectrophotometric analysis of the reaction between 0.1 mM Fe(ClO4)2 and 0.1 mM 1 in MeCN at 298 K. The UV/vis spectra of the product formed from 0.1 mM Fe(ClO4)2 and 0.1 mM H4qp4 (blue) and that corresponding to 0.1 mM 1 are provided for comparison. FIG. 18B depicts spectrophotometric analysis of the reaction between 0.1 mM Fe(OTf)2 and 0.1 mM 1 in aqueous solutions containing 50 mM HEPES buffered to pH 7.00 at 298 K. The UV/vis spectrum of the product formed from 0.1 mM Fe(OTf)2 and 0.1 mM H4qp4 (blue) and that corresponding to 0.1 mM 1 are provided for comparison.

[5] = Stability of Fe(III) complexes by potentiometric pH titration (log KML); assay type: physicochemical; settings: 25° C.
Method: as §1

[6] = cited from earlier work; for increase of relaxivity upon oxidation by excess H2O2: recently reported sensors
[7] = Example 1, previously reported Mn(II) complex 3; cited from earlier work
[8] = Variable temperature 17O NMR, aquation number and water exchange of Mn(II) complexes; assay type: physicochemical; settings: Example 1, Mn(II) complexes, 298 K
Method: FIG. 16 depicts plots of r2° as a function of temperature for 1 before and after oxidation by H2O2. Experimental conditions for pre-activated sensor (black squares): [1]=6.0 mM in 60 mM HEPES buffered to pH 7.4 and 10% (v/v) of 10% ^17OH2, B=9.4 T. Experimental conditions for activated sensor (red circles): [1]=2.5 mM in 60 mM MOPS buffered to pH 7.4 with 15 equiv. H2O2 and 10% (v/v) of 10% ^17OH2, B=9.4 T. NMR data acquisition began 15 min after the start of the oxidation reaction.
Aquation numbers (q) were calculated from the maximum ^17O transverse relaxivity, r2max°, and the equation: q=r2max°/510; Gale, Zhu, and Caravan previously used this relationship to estimate the inner-sphere hydration state of Mn(II) in coordination complexes (Gale, E. M. et al., 2013, J. Am. Chem. Soc., 135:18600). Relaxation rates were measured both for aqueous solutions containing Mn(II) complexes and for metal-free solutions buffered to pH 7.4. The linewidths at half-height of the signal were determined by a deconvolution procedure on the real part of the Fourier transformed spectra with a Lorentzian shape function in the data analysis module of Bruker Topspin 1.3® software. The measurements were performed with a commercial 5 mm Bruker broadband probe thermostat with a Bruker B-VT 3000 variable temperature unit. […]

[9] = Metal ion exchange with Zn(II) followed by 1H NMR; assay type: physicochemical; settings: Example 2, 10 mM Fe(III) complex 3 and 20 mM Zn(ClO4)2, 48 h
Method: FIG. 19, comprising FIG. 19A and FIG. 19B, depicts representative NMR data. FIG. 19A depicts a reaction between 20 mM Zn(ClO4)2 and 10 mM 1 in CD3CN. The reaction equilibrated at 295 K for 24 h prior to data acquisition. FIG. 19B depicts the ^1H NMR spectrum of the product of the reaction between 10 mM Zn(ClO4)2 and 10 mM metal-free H4qp4.
FIG. 63, comprising FIG. 63A and FIG. 63B, depicts representative NMR data. FIG. 63A depicts the reaction between 20 mM Zn(ClO4)2 and 10 mM 3 in D20. The reaction equilibrated at 295 K for 48 h prior to data acquisition. FIG. 63B depicts a ^1H NMR spectrum of the product of the reaction between 10 mM Zn(ClO4)2 and 10 mM metal-free H4qp4 in D20.

`O.O.O.O.O.O.[Mn+2]` [[Mn(H2O)6]^2+] gave a T1-weighted relaxivity ([1]; Example 1, measured independently) of 5.26 mM^−1 s^−.
In the case of `NCCN1CCN(CC(=O)O)Cc2cccc(n2)CN(CC(=O)O)CC1` [PC2A-EA^2−], the “log KML of the Mn(II) complex” value [2] is given as 19.01.
For `O=C(O)CN(CC(=O)O)C1CCCCC1N(CC(=O)O)Cc1ccccn1` (stereo not drawn) [PyC3A^3−], the “log KML of the Mn(II) complex” value [2] is given as 14.14.
In the case of `O=C(O)CN1CCN(CC(=O)O)CCN(CC(=O)O)CCN(CC(=O)O)CC1` [DOTA^4−], the “log KML of the Mn(II) complex” value [2] is listed as 19.89.
For “(1-(2,5-dihydroxybenzyl)-8-(2,5-dihydroxybenzylalkoxide)-1,4,8,11-tetraazacyclotetradecane)iron(II) triflate [Complex 1]”, the “log KML” value [3] was 27.16.
For `CC#N.O=S(=O)([O-])C(F)(F)F.O=S(=O)([O-])C(F)(F)F.Oc1ccc(O)c(CN(CCN(Cc2ccccn2)Cc2ccccn2)Cc2ccccn2)c1.[Mn+2]` [Complex 2], the pMn [2] is given as 7.25, the “Mn(II) displaced by an equimolar amount of Fe(II)” value ([4]; Example 1, MeCN, by 15 h) is given as “approximately 10%” and the “log KML” value [5] is given as 38.84. For the same compound, the “increase of relaxivity upon oxidation by excess H2O2” value [6] was 10%.
In the case of `Oc1ccc(O)c(CN(CCN(Cc2ccccn2)Cc2cc(O)ccc2O)Cc2ccccn2)c1.[Br-].[Br-].[Mn+2]` [Complex 3], the “increase of relaxivity upon oxidation by excess H2O2” value [6] is given as 30%.
For `O=S(=O)([O-])C(F)(F)F.O=S(=O)([O-])C(F)(F)F.[Fe+3].[O-]c1ccc(O)cc1CN1CCCNCCN(Cc2cc(O)ccc2O)CCCNCC1` [Complex 3, (1-(2,5-dihydroxybenzyl)-8-(2,5-dihydroxybenzylalkoxide)-1,4,8,11-tetraazacyclotetradecane)iron(III) triflate], the “r1 of pre-activated form” value [7] is listed as 5.46 mM^−1 s^−, the pMn [2] is listed as 5.36 and the “rate constant for water exchange (kex)” value [8] is listed as 4.9e+06 s⁻¹. For the same compound, the “Zn(II) complex with H4qp4 formed” value [9] was “only trace amounts”, the “Mn(II) displaced by an equimolar amount of Fe(II)” value ([4]; Example 1, by 3 h) was 80% and the r1 ([1]; Example 2, Fe(III) complex 3, 3 T, 50 mM HEPES pH 7.00, 298 K) was 0.87 mM⁻¹ s⁻¹. For the same compound, the “log KML” value [5] was 33.80.
For `O=C([O-])CN(CC(=O)[O-])C1CCCCC1N(CC(=O)[O-])Cc1ccccn1.[Fe+2]` (stereo not drawn) [Fe(II)-PyC3A], the “increase in relaxivity on oxidation to Fe(III)” value ([6]; 1.4 T) is listed as 10 fold.
